Test results as given in US8158169B2, “Chinese medicine composition and preparation method and use thereof” (priority 2006, dated 2012).

Columns and labels:
SOD = assay: Activity of SOD of whole brain, rats with natural aging cognition impairment; conditions: 12 weeks after drug administered, dosage 0.08 mg/kg
Description: (§3) The detection is performed as per the instruction of the reagent kits.

[1] = system: pyramidal cells of hippocampus; assay: HE staining, histomorphology of rats with D-galactose induced brain aging; format: in vivo; conditions: compared with the model group
Description: The experiment is performed as per Section 2, Chapter 7 of Pathological Tissue Sectioning and Staining Technology (Gong Zhi-jin et al.).
The pyramidal cells of hippocampus of rats in the blank group are tight in alignment, obvious with the upper and lower cell lines and rich in number of cells; the nuclear membrane are clear with distinct nucleolus. The pyramidal cells of hippocampus of rats in the model group is loosening in the alignment, oblique in the cellular structure, swelling in the cell body and irregular in the upper and lower cell lines; Some cells have nucleus pyknosis and deep staining.

[2] = system: mice with ethanol induced memory retrieval impairment; assay: Step through experiment, mice with ethanol induced memory retrieval impairment; format: in vivo; conditions: ethanol model mice, dosage 0.08 mg/kg
hippocampus nerve cells [3] = assay: Ultrastructure of hippocampus nerve cells, rats with Aβ toxicity impairment; format: in vivo; conditions: compared with the model group
Text: There are margination and pyknosis of chromosome of nucleus of hippocampus nerve cells in rats of the model group; the volume of cell is lessened and the cytoplasm is concentrated; the mitochondria are mildly swelling in a few cells; the cell organelle such as the rough endoplasmic reticulum and ribosome are generally normal; and the presynaptic and postsynaptic membranes are not clear. The synaptic space disappears.

[4] = system: monoamine neurotransmitters and its metabolites in whole brain; assay: Monoamine neurotransmitters and metabolites in whole brain, rats with Aβ toxicity injury; format: in vivo; conditions: dosage 0.08 mg/kg
Text: (§1) Acta Pharmacol Sin. 2004; 25: 1118˜23.

MDA = assay: Content of MDA of whole brain, rats with natural aging cognition impairment; conditions: 12 weeks after drug administered, dosage 0.08 mg/kg
Description: as §3

[5] = system: 5-HT and 5-HIAA in the whole brain; assay: Monoamine neurotransmitters in whole brain of APP transgenic mice; format: in vivo; conditions: positive Huperzine A group
Text: as §1

hippocampus nerve cells [6] = assay: Ultrastructure of hippocampus nerve cells, rats with natural aging cognition impairment; conditions: contrary to the model group
ACh in brain = assay: Content of ACh in brain of 2VO rats; conditions: 3 months after 2VO, two months after drug administered, dosage 0.06 mg/kg
[7] = system: mice with scopolamine hydrobromide induced memory impairment; assay: Step down experiment, mice with scopolamine hydrobromide induced memory impairment; conditions: scopolamine model mice, dosage 0.08 mg/kg
Description: 1.1.2 The experiment is performed as per Nervous System Drugs Section 5 in Methodology of Pharmaceutical Experiment (XU Shu-yun, et al.).

Ach in whole brain = assay: Content of ACh in whole brain, rats with Aβ toxicity injury; conditions: Aβ1-40 rats, four weeks after drug administered, dosage 0.08 mg/kg
Na+-K+-ATP enzyme = conditions: whole brain, Aβ1-40 rats; four weeks after drug administered; dosage 0.08 mg/kg
Description: as §3

2VO rats = assay: Morris water maze, VD rats with bilateral common carotid artery permanent ligation (2VO); conditions: dosage 0.06 mg/kg
[8] = system: rats impaired by β-amyloid precursor protein (Aβ) toxicity; assay: Morris water maze, rats impaired by Aβ toxicity; format: in vivo; conditions: Morris water maze swimming; Aβ 1-40 rats, four weeks; dosage 0.08 mg/kg
Text: (§2) The search strategy is mostly marginal or random. […]

[9] = system: rats impaired by toxicity; assay: Morris water maze, rats impaired by Aβ toxicity; format: in vivo; conditions: Morris water maze swimming; Aβ 1-40 rats, four weeks; dosage 0.08 mg/kg
Text: as §2

[10] = 15 days after drug administered

SMILES: C/C=C1\[C@H]2C=C(C)C[C@]1(N)c1ccc(=O)[nH]c1C2 [Huperzine A]
- Activity of SOD (SOD): 43.68 ± 2.55 NU/mgProt
- histomorphology of pyramidal cells of hippocampus (HE staining) [1]: in order of alignment with clearer contour of cells
- Latency [2, 10]: 214.1 ± 127.8 s
- Number of Mistakes ([2]; in 5 minutes, 15 days): 1.0 ± 1.3
- ultrastructure of hippocampus nerve cells (hippocampus nerve cells [3]): better morphology and structure, clearer cell membrane and pre- and post-synaptic membranes
- 5-HIAA [4]: 27.3 ± 3.1 µg/L
- 5-HT [4]: 41.7 ± 5.9 µg/L
- DA [4]: 136.2 ± 8.5 µg/L
- DOPAC [4]: 13.4 ± 1.3 µg/L
- HVA [4]: 15.4 ± 9.4 µg/L
- NE [4]: 75.9 ± 11.3 µg/L
- Content of MDA (MDA): 3.50 ± 0.43 nmol/mgProt
- 5-HT and 5-HIAA in the whole brain [5]: decrease to different degrees
- ultrastructure of hippocampus nerve cells (hippocampus nerve cells [6]): better morphology and structure and clearer cell membrane
- Content of ACh (ACh in brain): 221.4 ± 41.9 µg/L
- Latency [7, 10]: 271.8 ± 54.6 s
- Number of Error ([7]; in 5 minutes, 15 days): 0.6 ± 0.9
- Content of ACh (Ach in whole brain): 180.0 ± 23.5 µg/L
- Activity of Na+—K+-ATP (Na+-K+-ATP enzyme): 0.207 ± 0.025 μmoLPi/mgProt/h
- Time of passing through maze, 1 month after ligation (2VO rats; 1 month after ligation): 61.3 ± 25.2 s
- Time of passing through maze, 2 months after ligation (2VO rats; 2 months after ligation (one month after drug administered)): 29.1 ± 18.5 s
- Time of passing through maze, 3 months after ligation (2VO rats; 3 months after ligation (two months after drug administered)): 10.8 ± 5.6 s
- Length of time [8]: 16.3 ± 10.6
- Length of route [9]: 436.7 ± 284.4
